Publication PMC4536076, “Chemical Library Screening and Structure-Function Relationship Studies Identify Bisacodyl as a Potent and Selective Cytotoxic Agent Towards Quiescent Human Glioblastoma Tumor Stem-Like Cells” (PLoS ONE, 2015)
Counter-ions that a name gives are not always drawn. Like-named read-outs stand apart in the source and are kept apart here.

What was measured:
quiescent TG1 GSCs [1] = test: ATP-Glo dose-response, quiescent TG1 GSCs; format: cell-based, human; details: for EC50: SAR study, ATP-Glo cell survival assay, 24 h, triplicate, read-out: Quiescent TG1 GSCs EC50
Protocol: (§1) The EC50 value was determined for each compound by fitting the data points according to the following equation: y=Smax+Smin*(x*1/EC50)^n/1+(x*1/EC50)^n where y represents the expected response, x is the chemical compound concentration, S max and S min are the maximum and minimum responses recorded, respectively and n is the Hill coefficient. Curve fitting was performed using Microsoft Excel Solver component.
(§2) Proliferating or quiescent TG1 cells were seeded in 50 μL of their respective media (30 000 and 40 000 viable cells/well, respectively) into 96-well opaque bottom plates (Greiner, Courtaboeuf, France). Compound treatment was performed by adding 50 μL of compound solutions (in the presence of 2% DMSO in culture medium). […] All compounds were tested in triplicate in each experiment. Independent experiments were performed at least twice for almost all of the compounds.

proliferating TG1 GSCs [2] = test: ATP-Glo dose-response, proliferating TG1 GSCs; format: cell-based, human; details: SAR study, ATP-Glo cell survival assay, 24 h, triplicate; for EC50: read-out: Proliferating TG1 GSCs EC50
Protocol: as §1, §2

proliferating TG1 GSCs [3] = details: 50 μM; for Activity on proliferating TG1 GSCs (hit compounds reducing ATP levels): primary screen, 24 h
Protocol: (§3) Proliferating or quiescent TG1 GSCs were seeded (30 000 and 40 000 viable cells/well, respectively) into 96-well opaque bottom plates (Greiner) with the Biomek FX robot (Beckman Coulter). Each compound from the Prestwick Library was then added (final concentration: 50 μM; 1% DMSO). Each molecule was tested once. Negative control wells (12/96 per assay plate) contained cells treated with 1% DMSO (final concentration) and positive control wells (4/96 per assay plate) contained cells treated with the fungal toxin ophiobolin A (Sigma Aldrich) at 50 μM with 1% DMSO. […] Luminescence in each well was measured with the Victor3 plate reader (PerkinElmer).
(§4) Relative ATP levels in each well were determined by calculating the percentage of luminescent signal in the well with respect to the average signal measured in negative control wells.
(§5) Primary screen hits were further tested in duplicate, at two concentrations (50 and 5 μM) on proliferating and quiescent TG1 GSCs. Cell plating and treatment with compounds were as for the primary screen. Hit selection/confirmation criteria for quiescent cells were as described above.

quiescent TG1 GSCs [4] = details: 50 μM; for Activity on quiescent TG1 GSCs (hit compounds reducing ATP levels): primary screen, 24 h
Protocol: as §3, §4, §5

Molecule: 4-hydroxyphenyl-4-phenyl-(pyridin-2-yl)-methane [Compound 7]
- EC50 (quiescent TG1 GSCs [1]): 17.1 ± 6.3 µM
- EC50 (proliferating TG1 GSCs [2]): > 100 µM

Molecule: Oc1ccc(C(c2ccccn2)c2ccccc2O)cc1 (stereo not drawn) [Compound 9, (2-hydroxyphenyl)-(4-hydroxyphenyl)-(pyridin-2-yl)-methane]
- EC50 (quiescent TG1 GSCs [1]; Homo sapiens): 57.6 ± 0.7 µM
- Proliferating TG1 GSCs EC50 (proliferating TG1 GSCs [2]): No activity

Molecule: Oc1ccc(C(c2ccc(O)cc2)c2cc(Br)ccn2)cc1 [Compound 18, 4,4'-dihydroxyphenyl-2-(4-bromopyridinyl)-methane]
- EC50 (quiescent TG1 GSCs [1]; Homo sapiens): 0.36 ± 0.06 µM
- Proliferating TG1 GSCs EC50 (proliferating TG1 GSCs [2]): No activity

Molecule: Oc1ccc(C(c2ccc(O)cc2)c2cccnc2)cc1 [Compound 15, 4,4'-dihydroxyphenyl-3-pyridinyl-methane]
- EC50 (quiescent TG1 GSCs [1]; Homo sapiens): 8 ± 3 µM
- fold increase in EC50 (activity decrease) compared to DDPM (compound 2) (quiescent TG1 GSCs [1]; quiescent TG1 GSCs): ~ 8 fold
- EC50 (proliferating TG1 GSCs [2]; Homo sapiens): > 100 µM

Molecule: Oc1ccc(C(c2ccc(O)cc2)c2ccccn2)cc1 [Compound 2, 4,4'-dihydroxydiphenyl(pyridine-2-yl)methane]
- EC50 (quiescent TG1 GSCs [1]; Homo sapiens): 1 ± 0.5 µM
- EC50 (proliferating TG1 GSCs [2]; Homo sapiens): > 100 µM

Molecule: CC(=O)Oc1ccc(C(c2ccc(OC(C)=O)cc2)c2cccc[n+]2C)cc1 [Compound 14, 2-(bis(4-acetoxyphenyl)methyl)-1-methylpyridinium iodide]
- EC50 (quiescent TG1 GSCs [1]; Homo sapiens): > 100 µM
- EC50 (proliferating TG1 GSCs [2]; Homo sapiens): > 100 µM

Molecule: Clc1ccc(CCC(Cn2ccnc2)Sc2c(Cl)cccc2Cl)cc1 (stereo not drawn) [Butoconazole nitrate]
- Activity on proliferating TG1 GSCs (hit compounds reducing ATP levels) (proliferating TG1 GSCs [3]): yes
- Activity on quiescent TG1 GSCs (hit compounds reducing ATP levels) (quiescent TG1 GSCs [4]): yes

Molecule: O=C(N/N=C/c1ccc([N+](=O)[O-])o1)c1ccc(O)cc1 [Nitrofuroxazide]
- Activity on proliferating TG1 GSCs (hit compounds reducing ATP levels) (proliferating TG1 GSCs [3]): yes
- Activity on quiescent TG1 GSCs (hit compounds reducing ATP levels) (quiescent TG1 GSCs [4]): yes

Molecule: CCN(CC)CCOc1ccc(C(=C(Cl)c2ccccc2)c2ccccc2)cc1.O=C(O)CC(O)(CC(=O)O)C(=O)O [Clomiphene citrate (Z, E)]
- Activity on proliferating TG1 GSCs (hit compounds reducing ATP levels) (proliferating TG1 GSCs [3]): yes
- Activity on quiescent TG1 GSCs (hit compounds reducing ATP levels) (quiescent TG1 GSCs [4]): yes

Molecule: OC(c1cc(C(F)(F)F)nc2c(C(F)(F)F)cccc12)C1CCCCN1 (stereo not drawn) [Mefloquine hydrochloride]
- Activity on proliferating TG1 GSCs (hit compounds reducing ATP levels) (proliferating TG1 GSCs [3]): yes
- Activity on quiescent TG1 GSCs (hit compounds reducing ATP levels) (quiescent TG1 GSCs [4]): yes

Molecule: CCCCC(CC)CNC(=N)NC(=N)NCCCCCCNC(=N)NC(=N)NCC(CC)CCCC (stereo not drawn) [Alexidine dihydrochloride]
- Activity on proliferating TG1 GSCs (hit compounds reducing ATP levels) (proliferating TG1 GSCs [3]): yes
- Activity on quiescent TG1 GSCs (hit compounds reducing ATP levels) (quiescent TG1 GSCs [4]): yes

Molecule: Cl.Cl.Fc1ccc(C(OCCN2CCN(CCCc3ccccc3)CC2)c2ccc(F)cc2)cc1 [GBR 12909 dihydrochloride]
- Activity on proliferating TG1 GSCs (hit compounds reducing ATP levels) (proliferating TG1 GSCs [3]): yes
- Activity on quiescent TG1 GSCs (hit compounds reducing ATP levels) (quiescent TG1 GSCs [4]): yes

Molecule: CC/C(=C(/CC)c1ccc(O)cc1)c1ccc(O)cc1 [Diethylstilbestrol]
- Activity on proliferating TG1 GSCs (hit compounds reducing ATP levels) (proliferating TG1 GSCs [3]): yes
- Activity on quiescent TG1 GSCs (hit compounds reducing ATP levels) (quiescent TG1 GSCs [4]): yes

Molecule: CCOC1O[C@H]([C@@H](COCc2ccccc2)OCc2ccccc2)[C@H](OCc2ccccc2)[C@H]1O (stereo partly drawn) [Tribenoside]
- Activity on proliferating TG1 GSCs (hit compounds reducing ATP levels) (proliferating TG1 GSCs [3]): yes
- Activity on quiescent TG1 GSCs (hit compounds reducing ATP levels) (quiescent TG1 GSCs [4]): yes

Molecule: Clc1ccc(COC(Cn2ccnc2)c2ccc(Cl)cc2Cl)c(Cl)c1 (stereo not drawn) [Miconazole]
- Activity on proliferating TG1 GSCs (hit compounds reducing ATP levels) (proliferating TG1 GSCs [3]): yes
- Activity on quiescent TG1 GSCs (hit compounds reducing ATP levels) (quiescent TG1 GSCs [4]): yes

Molecule: CC(C)=C[C@H]1C[C@H](C)[C@]2(CC[C@]3(C)C[C@H]4[C@H](C(=O)C[C@@]4(C)O)/C(C=O)=C\C[C@H]32)O1 [Ophiobolin A]
- cytotoxicity (positive control) (proliferating TG1 GSCs [3]; 1% DMSO, proliferating GSCs): cytotoxic
- cytotoxicity (positive control) (quiescent TG1 GSCs [4]; 1% DMSO, quiescent GSCs): cytotoxic

Molecule: COc1cc(NC(C)CCCN)c2ncccc2c1 (stereo not drawn) [Primaquine diphosphate]
- Activity on proliferating TG1 GSCs (hit compounds reducing ATP levels) (proliferating TG1 GSCs [3]): yes
- Activity on quiescent TG1 GSCs (hit compounds reducing ATP levels) (quiescent TG1 GSCs [4]): yes

Molecule: Clc1ccc(C(Cn2ccnc2)OCc2c(Cl)cccc2Cl)c(Cl)c1 (stereo not drawn) [Isoconazole]
- Activity on proliferating TG1 GSCs (hit compounds reducing ATP levels) (proliferating TG1 GSCs [3]): yes
- Activity on quiescent TG1 GSCs (hit compounds reducing ATP levels) (quiescent TG1 GSCs [4]): yes

Molecule: CC1=CC(=O)c2ccccc2C1=O [Menadione]
- Activity on proliferating TG1 GSCs (hit compounds reducing ATP levels) (proliferating TG1 GSCs [3]): yes
- Activity on quiescent TG1 GSCs (hit compounds reducing ATP levels) (quiescent TG1 GSCs [4]): yes
